Assay in all cases: relative viability (nuclei count vs DMSO), 5 days (fraction); higher = more cells survive
Compound in experiment [1]: C1=CC2=NC=CN=C2C=C1/C=C/3\C(=O)NC(=O)S3
Put shortly:
(§1)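 Lung cancer cell lines in 1536-well plates were kept overnight at 37 °C, then pinned with five library-drug doses (not always all listed) spaced by √10 on vehicle-anchored plates. After 5 days without medium change, cells were fixed, permeabilised and Hoechst-stained in one step, imaged at 4×, and nuclei were counted with MetaXpress. Viability is treated-well nuclei divided by vehicle-well nuclei, taken as the median over plates. Plates passed only with control CV below 25% and at least one doubling.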

Compound in experiment [2]: CCN1CCN(c2ccc(Nc3cc(N(C)C(=O)Nc4c(Cl)c(OC)cc(OC)c4Cl)ncn3)cc2)CC1 [BGJ398]
The procedure, abridged: as §1

Compound in experiment [3]: C1=CC2=NC=CN=C2C=C1/C=C/3\C(=O)NC(=O)S3 + Cc1nc(NC(=O)N2CCC[C@H]2C(N)=O)sc1-c1ccnc(C(C)(C)C(F)(F)F)c1 [Alpelisib] (partner 2 µM)
The procedure, abridged: (§2)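 Values are medians from duplicate plates. Each reflects relative viability, defined as the nuclei count of treated wells over that of vehicle wells. Lung cancer cell lines in 1536-well plates were pin-tool dosed one day after seeding with one drug alone or with a fixed anchor-drug dose plus five library-drug doses (not always all listed) in √10 steps, then fixed, stained and imaged at 4× after 5 days.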

Compound in experiment [4]: CCN1CCN(c2ccc(Nc3cc(N(C)C(=O)Nc4c(Cl)c(OC)cc(OC)c4Cl)ncn3)cc2)CC1 [BGJ398] + Nc1nc2[nH]cc(CCc3ccc(C(=O)N[C@@H](CCC(=O)O)C(=O)O)cc3)c2c(=O)[nH]1 [Pemetrexed] (partner 0.2 µM)
Put shortly: as §2

Consider four cell lines from the supplement of paper PMC10307832.

Consider HCC-827, for which the relative viability was determined as 0.989 in experiment [1] (0.02 µM); 0.984 in experiment [1] (0.06325 µM); 1.02 in experiment [1] (0.2 µM); 1.04 in experiment [1] (0.6325 µM); 1.05 in experiment [1] (2 µM); 0.932 in experiment [2] (0.01 µM). Also, the relative viability in experiment [2] (0.1 µM) turned out to be 1.01; in experiment [2] (0.3162 µM) it was 0.962; in experiment [2] (1 µM), 1.04; in experiment [3] (first compound 0.02 µM), 1.05; in experiment [3] (first compound 0.06325 µM), 0.947; in experiment [3] (first compound 0.2 µM), 1.04. The relative viability stood at 0.925 in experiment [3] (first compound 0.6325 µM); 0.911 in experiment [3] (first compound 2 µM); 0.254 in experiment [4] (first compound 0.01 µM); 0.277 in experiment [4] (first compound 0.1 µM); 0.184 in experiment [4] (first compound 0.3162 µM); 0.272 in experiment [4] (first compound 1 µM).

HOP-62: the relative viability in experiment [1] (0.02 µM) is 0.929; in experiment [1] (0.06325 µM), 0.945; in experiment [1] (0.2 µM), 1.06; in experiment [1] (0.6325 µM), 1; in experiment [1] (2 µM), 0.943; in experiment [2] (0.01 µM) it was 0.983. In addition, the relative viability in experiment [2] (0.03162 µM) amounted to 1.07; in experiment [2] (0.1 µM), 1.07; in experiment [2] (0.3162 µM) it was 0.982; in experiment [2] (1 µM), 1.02; in experiment [3] (first compound 0.02 µM) it was 0.898; in experiment [3] (first compound 0.06325 µM) it was 1.02. Also, the relative viability in experiment [3] (first compound 0.2 µM) worked out at 1.11; in experiment [3] (first compound 0.6325 µM) it was 1.09; in experiment [3] (first compound 2 µM), 1.05; in experiment [4] (first compound 0.01 µM) it was 0.375; in experiment [4] (first compound 0.03162 µM), 0.382; in experiment [4] (first compound 0.1 µM), 0.335. Moreover, the figures for the relative viability in experiment [4] (first compound 0.3162 µM) and in experiment [4] (first compound 1 µM) were 0.36 and 0.379, respectively.

Take LC-2-ad: the relative viability was 0.973 in experiment [1] (0.02 µM); 0.987 in experiment [1] (0.06325 µM); 1.11 in experiment [1] (0.2 µM); 0.917 in experiment [1] (0.6325 µM); 0.758 in experiment [1] (2 µM); 0.977 in experiment [2] (0.01 µM). In addition, the relative viability was determined as 1.03 in experiment [2] (0.03162 µM); 0.977 in experiment [2] (0.1 µM); 0.994 in experiment [2] (0.3162 µM); 0.906 in experiment [2] (1 µM); 0.785 in experiment [3] (first compound 0.02 µM); 0.975 in experiment [3] (first compound 0.06325 µM). In addition, the relative viability is 0.832 in experiment [3] (first compound 0.2 µM); 0.812 in experiment [3] (first compound 0.6325 µM); 0.686 in experiment [3] (first compound 2 µM); 0.292 in experiment [4] (first compound 0.01 µM); 0.285 in experiment [4] (first compound 0.03162 µM); 0.245 in experiment [4] (first compound 0.1 µM). The figures for the relative viability in experiment [4] (first compound 0.3162 µM) and in experiment [4] (first compound 1 µM) were 0.271 and 0.31, respectively.

Regarding LCLC-97TM1, the relative viability amounted to 0.822 in experiment [1] (0.02 µM); 1.02 in experiment [1] (0.06325 µM); 1.03 in experiment [1] (0.2 µM); 0.906 in experiment [1] (0.6325 µM); 0.214 in experiment [1] (2 µM); 0.778 in experiment [2] (0.01 µM). The relative viability in experiment [2] (0.03162 µM) was 1.09; in experiment [2] (0.1 µM), 1.02; in experiment [2] (0.3162 µM), 0.962; in experiment [2] (1 µM), 0.97; in experiment [3] (first compound 0.02 µM), 0.234; in experiment [3] (first compound 0.06325 µM), 0.267. The relative viability in experiment [3] (first compound 0.2 µM) turned out to be 0.294; in experiment [3] (first compound 0.6325 µM), 0.268; in experiment [3] (first compound 2 µM), 0.178; in experiment [4] (first compound 0.01 µM), 0.172; in experiment [4] (first compound 0.03162 µM), 0.236; in experiment [4] (first compound 0.1 µM), 0.161. Moreover, the relative viability in experiment [4] (first compound 0.3162 µM) came to 0.174; in experiment [4] (first compound 1 µM), 0.162.
